Several values for one entry are separate records, joined by “and”; a condition that tells them apart may be missing. Equal entries are not always repeated. Where two headings read alike, the source gives them in different places. Marks after values point to notes of the source that are not given here.
Key:
[1] = test system: formalin-induced rat paw oedema; experiment: Formalin-induced paw oedema test (acute inflammation model); format: in vivo; settings: for inhibition in vivo at 5 mg/kg: Rattus norvegicus; for inhibition in vivo at 5 mg/kg / Volume of oedema (ml) 4h, Mean ± SD: po; for % Relative potency (4h) celecoxib, Mean ± SD / % Relative potency (4h) celecoxib: relative to % inhibition of celecoxib at 4 h; for % Relative potency (4h) diclofenac, Mean ± SD / % Relative potency (4h) diclofenac: relative to % inhibition of diclofenac at 4 h
Protocol: Animals Adult female albino rats weighing 150-250 g were used (Experimental Animal Centre in Alexandria University). All animals accessed to food and water ad libitum and were housed in 12 h dark/light cycle in a controlled condition at 23-250C. They were allowed to acclimatize for 1 week prior to experimentation. Procedures involving animals and their care were conducted in conformity with the Guide for the Care and Use of Laboratory Animals published by US National Institute of Health4 (NIH publication No. 83-23, revised) and following the ethical guidelines of Alexandria University on laboratory animals. In all tests, adequate considerations were adopted to reduce pain or discomfort of animals (Approved by AlexU-IACUC) 3. […]
Formalin-induced paw edema test (acute inflammation model):
A solution of freshly prepared formalin 5% was used as a phlogistic agent. A mark was made on the lateral malleolus of the rats’ paws delineating the injection sites. The initial volume of paw was measured by means of digital calibrated Vernier caliper .
After 45 minutes, 40 μl formalin were injected subcutaneously into the sub plantar tissue of the right hind paw of all groups under light ether anesthesia . An equal volume of saline was injected into the left hind paw and served as internal control for the degree of inflammation in the right hind paw. 5, 6 The volume of paw was measured in different treatment groups, 4 h following the formalin injection and the amount of increase in paw volume (edema volume) was calculated by subtracting the volumes before and 4 h after the injection of formalin. Edema was expressed as an increase in the volume of paw, and the percentage of edema inhibition (or percent protection against inflammation) for each rat and each group was calculated according to the following equation: […]
Where Vt is the mean volume of edema at specific time interval (4 h) and Vo is the mean volume of edema […]
Relative potency of the tested compounds was expressed as % inhibition of edema for the tested compounds

gastric mucosa = experiment: In vivo gastric ulcerogenic activity (gross examination of gastric mucosa); settings: fasted rats, 60 mg/kg orally, six hours after treatment
COX-1 = target: T1, COX-1 (Ovis aries, UniProt P05979); experiment: In vitro COX-1 inhibitory assay (Cayman colorimetric COX (ovine) inhibitor screening assay kit); format: biochemical; settings: mean of three replicates ± SD
T1 construct: purchased Cayman chemicals 560131
T1 sequence (P05979 25-600): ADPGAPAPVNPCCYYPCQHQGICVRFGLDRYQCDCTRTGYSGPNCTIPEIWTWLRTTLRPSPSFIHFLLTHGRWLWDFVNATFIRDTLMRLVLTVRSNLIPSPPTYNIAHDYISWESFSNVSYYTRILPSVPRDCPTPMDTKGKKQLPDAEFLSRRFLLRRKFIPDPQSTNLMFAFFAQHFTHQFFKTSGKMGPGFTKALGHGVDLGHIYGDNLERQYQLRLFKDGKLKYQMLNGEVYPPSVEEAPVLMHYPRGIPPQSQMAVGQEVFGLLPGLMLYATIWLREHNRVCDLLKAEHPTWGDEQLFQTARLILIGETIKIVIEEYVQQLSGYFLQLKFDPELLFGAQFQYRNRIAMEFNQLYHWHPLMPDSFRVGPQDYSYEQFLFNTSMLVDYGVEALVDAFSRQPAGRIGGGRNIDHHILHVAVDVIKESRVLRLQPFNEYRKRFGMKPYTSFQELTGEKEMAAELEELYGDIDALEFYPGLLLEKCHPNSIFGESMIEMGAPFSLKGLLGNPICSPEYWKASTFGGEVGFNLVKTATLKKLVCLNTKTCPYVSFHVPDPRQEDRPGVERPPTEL
Protocol: (Page: S20, Supplementary file).
Anti-inflammatory activity
In vitro COX-1 and COX-2 inhibitory assay […]
supplied by Cayman chemicals, Ann Arbor, MI, USA according to reported method 1. The colorimetric COX inhibitor screening assay utilizes the peroxidase component of cyclooxygenase. The peroxidase activity was assayed calorimetrically by monitoring the appearance of oxidized N,N,N',N'-tetramethyl-1,4-phenylenediamine (TMPD) at 590nm. The appearance of reagent was carried out following the instructions […]
The half- maximal inhibitor concentrations (IC50µM) were determined and the selectivity index (SI) values were calculated as IC50 (COX-1)/IC50 (COX-2).
1) Background wells- 160 µL of assay buffer and 10 µL of heme were added to background wells.
2) The 100% Initial activity wells- 150 µL of assay buffer, 10 µL of heme and 10 µL of enzyme (COX-1 or COX-2) were added.
3) Inhibitor well- 150 µL of assay buffer, 10 µL of heme and 10 µL of enzyme were added.
4) 10 µL of inhibitor (3 concentrations) in DMSO was added to the inhibitor wells to yield a final […]
5) 10 µL of solvent (DMSO) was added to the 100% Initial activity wells and background wells.
7) 20 µL of colorimetric substrate solution (TMPD) was added to all wells.
8) 20 µL of arachidonic acid was added to all wells to yield a final concentration of 100 µM.
10) The absorbance was measured at 590 nm using a plate reader.
The calculations were carried out in the following manner:
1) The average absorbance of all samples was determined.
2) The absorbance of background wells was subtracted from absorbance of the 100% Initial activity […]
3) Percent inhibition = (100% Initial activity – Inhibitor wells/ 100% Initial activity)∗ 100 […]
Place the 96-well plate on a shaker for at least five minutes. […]

5-LOX = experiment: In vitro 5-LOX inhibitory assay (Abnova 5-LOX inhibitor screening assay kit); format: biochemical
From the text: The newly synthesised compounds were screened for their ability to inhibit 5-LOX enzymes. […] (Page: S21, Supplementary file). […]
In vitro LOX inhibitory assay
Inhibitor Screening Assay Kit detects and measures the hydroperoxides produced in the lipoxygenation reaction using a purified LOX. The detection reaction is equally sensitive to hydroperoxides at various positions within the fatty acid and will work with fatty acids of any carbon length. It is thus a general detection method for 5-LOX and can be used to screen libraries of compounds for those which inhibit 5 -LOX enzymes.
1) Blank Wells- add 100 µL of assay buffer to at least two wells.
2) Positive Control Wells- Lipoxygenase (15-LO standard) add 90 µL 15-LO and 10 µL of assay buffer […]
3) 100% Initial Activity Wells- add 90 µL 15-LO and 10 µL of solvent (DMSO) (the same solvent to dissolve the inhibitor) to two wells. The 100% initial activity wells should result in approximately 10 […]
4) Inhibitor Wells- add 90 µL of sample and I10 µL of inhibitor to two wells.
5) Initiate the reaction by adding 10 µL of substrate (either arachidonic acid or linoleic acid) to all the wells. Place the 96-well plate on a shaker for at least five minutes.
6) Add 100 µL of chromogen to each well to stop enzyme catalysis and develop the reaction. Cover with a plate cover and place the 96-well plate on a shaker for at least five minutes.
7) Remove the cover and read the absorbance at 490-500 nm using a plate reader.
Inhibitors were dissolved in DMSO. The inhibitors were added to the assay in a final volume of 10 µL before initiating with substrate. Three concentrations were prepared (25, 50 and 100 µM) to determine the concentration produced 50% enzyme inhibition.
2) The absorbance of blank wells was subtracted from absorbance of the 100% Initial activity and the […]

[2] = 4 h, group mean ± SD, 5 mg/kg orally
[3] = 4 h minus 0, group mean ± SD, 5 mg/kg orally
[4] = 4 h, read-out: % Inhibition of oedema volume, 4 h, individual rats 1-3, 5 mg/kg orally
[5] = 4 h, read-out: % Inhibition of oedema volume, Mean ± SD, 4 h, group mean ± SD, 5 mg/kg orally
[6] = 4 h, individual rats 1-3, 5 mg/kg orally, read-out: % Inhibition of oedema volume

Row | IC50 (COX-1) [µM] | IC50 (5-LOX) [µM] | Compound | % Inhibition of oedema volume, Mean ± SD [1, 2] | Abs diff., Mean ± SD [1, 3] | inhibition in vivo at 5 mg/kg [1, 4] [%] | inhibition in vivo at 5 mg/kg [1, 5] [%] | Volume of oedema (ml) 4h, Mean ± SD ([1]; 5 mg/kg, 4 h) | Gross appearance of gastric mucosa (ulcerogenic potential) (gastric mucosa) | inhibition in vivo at 5 mg/kg [1, 6] [%] | % Relative potency (4h) celecoxib, Mean ± SD ([1]; group mean ± SD) [%] | % Relative potency (4h) celecoxib ([1]; individual rats 1-3) | % Relative potency (4h) diclofenac, Mean ± SD ([1]; group mean ± SD) [%] | % Relative potency (4h) diclofenac ([1]; individual rats 1-3) | % inhibition of paw oedema compared with reference drugs (in words) ([1]; 4 h, 5 mg/kg orally, comparison with celecoxib or diclofenac sodium) | Abs diff. ([1]; 4 h minus 0, individual rats 1-3, 5 mg/kg orally, 5 mg/kg) | inhibition in vivo at 5 mg/kg ([1]; 4 h, group mean ± SD, 5 mg/kg orally, read-out: % Inhibition of oedema volume, Mean ± SD) [%] | Volume of oedema (ml) 0 ([1]; time 0, individual rats 1-3, 5 mg/kg orally, 5 mg/kg) [mL]
1 |  |  | Cc1ccc(-c2cc(C(F)(F)F)nn2-c2ccc(S(N)(=O)=O)cc2)cc1 [Celecoxib, reference compound] | 36.33 ± 2.05% | 1.38^a ± 0.06 | 35.2 | 36.4 | 5.69^a ± 0.02 ml | no ulceration |  |  |  |  |  |  |  |  | 
2 | 11.24 ± 0.075 | 2.56 ± 0.025 | Cc1ccc(C(C)C)c(O)c1C=NNC(=O)c1cc(-c2ccc(Br)cc2)n(-c2ccccc2)n1 [Compound 8e, 5-(4-Bromophenyl)-N'-(2-hydroxy-3-isopropyl-6-methylbenzylidene)-1-phenyl-1H-pyrazole-3-carbohydrazide] |  |  |  |  |  |  | 59.5 | 149.1 ± 20.95 | 169.20% and 127.40% and 150.70% | 103.8 ± 19.09 | 125.70% and 90.70% and 95.0% |  |  |  | 
3 |  |  | O=C(O)Cc1ccccc1Nc1c(Cl)cccc1Cl [Diclofenac sodium, reference compound] | 52.53^b ± 4.59% | 1.03^ab ± 0.12 | 47.3 | 52.4 | 5.30^ab ± 0.09 ml | no ulceration |  |  |  |  |  |  |  |  | 
4 | 11.2 ± 0.57 | 2.91 ± 0.064 | COc1ccc(-c2cc(C(=O)NN=Cc3c(C)ccc(C(C)C)c3O)nn2-c2ccccc2)cc1 [Compound 8f, 5-(4-Methoxyphenyl)-N'-(2-hydroxy-3-isopropyl-6-methylbenzylidene)-1-phenyl-1H-pyrazole-3-carbohydrazide] |  |  |  |  |  |  | 50.5 | 127.7 ± 14.41 | 143.60% and 115.50% and 124.0% | 89.03 ± 15.43 | 106.70% and 82.20% and 78.20% | slightly less % inhibition than that of Diclofenac sodium | 1.20 | 46.3 ± 3.67 | 5.15
